Source: ChEMBL document CHEMBL6114960, “Discovery of First-in-Class FXR and HSD17B13 Dual Modulator for the Treatment of Metabolic Dysfunction-Associated Fatty Liver Disease” (J Med Chem, 2025)

Assays:
[1] = target: T1, G-protein coupled bile acid receptor 1 (Homo sapiens, UniProt Q8TDU6); assay: Agonist activity at TGR5 in human NCI-H716 cells assessed as increase in intracellular cAMP level preincubated with compound for 60 mins followed by IBMX addition and measured after 24 hrs by HTR-FRET assay; type: functional, cell-based
T1 sequence (Q8TDU6 whole entry): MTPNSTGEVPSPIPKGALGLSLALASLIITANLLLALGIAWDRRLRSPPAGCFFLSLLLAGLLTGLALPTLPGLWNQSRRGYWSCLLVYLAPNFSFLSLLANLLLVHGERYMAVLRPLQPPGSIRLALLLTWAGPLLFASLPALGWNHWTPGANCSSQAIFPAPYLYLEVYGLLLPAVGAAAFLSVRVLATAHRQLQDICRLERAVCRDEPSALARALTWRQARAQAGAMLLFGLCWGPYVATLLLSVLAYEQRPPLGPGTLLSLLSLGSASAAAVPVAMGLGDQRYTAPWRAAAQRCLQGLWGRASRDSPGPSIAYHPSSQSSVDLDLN

[2] = target: T2, Bile acid receptor (Homo sapiens, UniProt Q96RI1); assay: Agonist activity at FXR-LBD (unknown origin) incubated for 3 hrs in presence of fluorescein-coactivator peptide by TR-FRET analysis
T2 sequence (Q96RI1 whole entry): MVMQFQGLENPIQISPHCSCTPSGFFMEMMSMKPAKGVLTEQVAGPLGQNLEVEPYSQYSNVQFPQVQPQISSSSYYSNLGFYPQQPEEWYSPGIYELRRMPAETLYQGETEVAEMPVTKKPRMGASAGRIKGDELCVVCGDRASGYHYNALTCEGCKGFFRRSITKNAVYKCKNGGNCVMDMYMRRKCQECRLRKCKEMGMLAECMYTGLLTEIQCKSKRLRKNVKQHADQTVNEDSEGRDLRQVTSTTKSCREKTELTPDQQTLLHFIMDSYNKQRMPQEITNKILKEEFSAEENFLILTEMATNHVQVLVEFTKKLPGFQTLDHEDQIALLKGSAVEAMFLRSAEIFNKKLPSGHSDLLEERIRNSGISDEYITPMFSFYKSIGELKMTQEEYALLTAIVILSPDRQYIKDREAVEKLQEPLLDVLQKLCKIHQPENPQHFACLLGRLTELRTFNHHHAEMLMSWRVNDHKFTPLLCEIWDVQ

[3] = target: T3, Mineralocorticoid receptor (Homo sapiens, UniProt P08235); assay: Agonist activity at mineralocorticoid receptor (unknown origin) transfected in green monkey CV-1 cells co-transfected with NHR responsive luciferase reporter incubated for 18 hrs by luciferase assay; type: cell-based
T3 sequence (P08235 whole entry): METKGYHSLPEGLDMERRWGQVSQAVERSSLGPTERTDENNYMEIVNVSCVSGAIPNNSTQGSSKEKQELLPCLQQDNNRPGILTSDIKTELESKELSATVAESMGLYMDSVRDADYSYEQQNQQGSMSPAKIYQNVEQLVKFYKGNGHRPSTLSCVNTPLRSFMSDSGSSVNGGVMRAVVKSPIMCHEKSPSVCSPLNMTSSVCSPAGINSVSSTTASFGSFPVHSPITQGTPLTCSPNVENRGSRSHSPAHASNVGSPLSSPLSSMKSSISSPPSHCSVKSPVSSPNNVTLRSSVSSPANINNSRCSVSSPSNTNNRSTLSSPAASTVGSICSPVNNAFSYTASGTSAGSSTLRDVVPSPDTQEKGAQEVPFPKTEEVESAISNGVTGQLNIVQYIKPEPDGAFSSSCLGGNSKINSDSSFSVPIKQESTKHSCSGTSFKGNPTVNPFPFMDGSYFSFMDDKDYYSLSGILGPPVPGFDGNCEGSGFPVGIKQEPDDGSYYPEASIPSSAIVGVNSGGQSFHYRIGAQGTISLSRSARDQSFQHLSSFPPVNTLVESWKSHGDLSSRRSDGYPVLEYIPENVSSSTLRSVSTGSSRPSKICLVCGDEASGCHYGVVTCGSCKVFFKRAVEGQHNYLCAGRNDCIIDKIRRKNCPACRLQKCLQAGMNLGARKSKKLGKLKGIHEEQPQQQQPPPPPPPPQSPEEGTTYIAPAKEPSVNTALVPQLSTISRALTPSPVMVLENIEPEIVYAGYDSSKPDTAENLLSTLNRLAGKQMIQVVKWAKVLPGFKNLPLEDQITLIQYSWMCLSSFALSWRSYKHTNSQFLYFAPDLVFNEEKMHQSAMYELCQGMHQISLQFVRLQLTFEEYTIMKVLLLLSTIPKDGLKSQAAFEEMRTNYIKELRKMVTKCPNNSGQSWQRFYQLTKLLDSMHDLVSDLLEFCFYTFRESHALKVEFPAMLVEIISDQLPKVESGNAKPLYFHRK

[4] = target: T4, Progesterone receptor (Homo sapiens, UniProt P06401); assay: Agonist activity at progesterone receptor (unknown origin) transfected in green monkey CV-1 cells co-transfected with NHR responsive luciferase reporter incubated for 18 hrs by luciferase assay; type: cell-based
T4 sequence (P06401 whole entry): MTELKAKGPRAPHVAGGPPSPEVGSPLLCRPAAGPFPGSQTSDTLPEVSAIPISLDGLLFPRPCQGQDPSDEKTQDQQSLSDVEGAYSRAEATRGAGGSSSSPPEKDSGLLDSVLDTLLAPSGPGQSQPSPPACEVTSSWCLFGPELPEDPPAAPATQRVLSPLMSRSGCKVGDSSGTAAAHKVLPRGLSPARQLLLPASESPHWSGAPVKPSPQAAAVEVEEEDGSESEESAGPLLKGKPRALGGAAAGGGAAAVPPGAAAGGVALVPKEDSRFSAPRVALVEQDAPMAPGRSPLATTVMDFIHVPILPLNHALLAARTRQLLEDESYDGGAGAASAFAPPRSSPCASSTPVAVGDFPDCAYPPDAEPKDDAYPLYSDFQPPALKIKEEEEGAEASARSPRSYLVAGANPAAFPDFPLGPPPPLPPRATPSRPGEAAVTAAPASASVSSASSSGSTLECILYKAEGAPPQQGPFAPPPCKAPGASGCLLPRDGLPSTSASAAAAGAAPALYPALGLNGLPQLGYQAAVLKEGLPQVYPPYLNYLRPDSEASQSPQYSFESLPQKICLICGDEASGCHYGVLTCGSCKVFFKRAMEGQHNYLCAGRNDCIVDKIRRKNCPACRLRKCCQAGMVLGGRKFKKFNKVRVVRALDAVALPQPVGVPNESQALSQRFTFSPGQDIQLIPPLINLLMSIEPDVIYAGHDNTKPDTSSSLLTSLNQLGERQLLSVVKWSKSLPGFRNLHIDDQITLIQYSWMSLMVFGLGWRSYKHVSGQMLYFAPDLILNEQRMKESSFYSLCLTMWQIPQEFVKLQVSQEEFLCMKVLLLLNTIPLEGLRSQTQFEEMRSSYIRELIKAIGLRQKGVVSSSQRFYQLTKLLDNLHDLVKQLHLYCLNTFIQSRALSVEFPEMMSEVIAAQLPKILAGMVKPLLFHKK

- EC50 [1]: > 10 µM
- EC50 [2]: 0.052 µM
- EC50 [3]: > 10 µM
- EC50 [4]: > 10 µM
Compound: O=C(O)c1ccc(-c2ccc(OCc3c(-c4c(Cl)cccc4Cl)noc3C3CC3)cc2)cc1
